Laboratory results published in ChEMBL document CHEMBL1201862, “PubChem BioAssay data set” (2004).
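All cell lines were grown in 96-well plates and treated with compound for 48 hours. GI50: concentration for 50% inhibition of growth.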 The source made the active and inactive calls. No stated cut-off is given here; in the data, active = GI50 up to about 1.1 µM and inactive = higher.

Tests used:
Test in all cases: NCI-60 cell line screen, 48 h
M19-MEL = tested on: M19-MEL
DLD-1 = tested on: DLD-1
SF-268 = tested on: SF-268
CCRF-CEM = tested on: CCRF-CEM
SF-539 = tested on: SF-539
HOP-18 = tested on: HOP-18
NCI-H23 = tested on: NCI-H23
HOP-92 = tested on: HOP-92
DMS-114 = tested on: DMS-114
A549 = tested on: A549
IGROV-1 = tested on: IGROV-1
SR = tested on: SR
HT-29 = tested on: HT-29
SNB-19 = tested on: SNB-19
LOX IMVI = tested on: LOX IMVI
A498 = tested on: A498
K562 = tested on: K562
HCT-15 = tested on: HCT-15
NCI-H460 = tested on: NCI-H460
HCC 2998 = tested on: HCC 2998
EKVX = tested on: EKVX
KM12 = tested on: KM12
HOP-62 = tested on: HOP-62
UO-31 = tested on: UO-31
OVCAR-4 = tested on: OVCAR-4
UACC-62 = tested on: UACC-62
786-0 = tested on: 786-0
HL-60 = tested on: HL-60
U-251 = tested on: U-251
KM-20L2 = tested on: KM-20L2
HCT-116 = tested on: HCT-116
MOLT-4 = tested on: MOLT-4
RXF 631 = tested on: RXF 631
CAKI-1 = tested on: CAKI-1
M14 = tested on: M14
OVCAR-5 = tested on: OVCAR-5
ACHN = tested on: ACHN
RPMI-8226 = tested on: RPMI-8226
OVCAR-8 = tested on: OVCAR-8
SF-295 = tested on: SF-295
SK-MEL-2 = tested on: SK-MEL-2
DMS-273 = tested on: DMS-273
SW-620 = tested on: SW-620
TK-10 = tested on: TK-10
SNB-78 = tested on: SNB-78
NCI-H522 = tested on: NCI-H522
Malme-3M = tested on: Malme-3M
RXF 393 = tested on: RXF 393
SK-OV-3 = tested on: SK-OV-3
SK-MEL-28 = tested on: SK-MEL-28
SNB-75 = tested on: SNB-75
SK-MEL-5 = tested on: SK-MEL-5
LXFL 529 = tested on: LXFL 529
UACC-257 = tested on: UACC-257
OVCAR-3 = tested on: OVCAR-3

Measured: GI50

Cc1nc(C(N)=S)sc1C(=O)CC(=O)C(=O)Nc1ccccc1[N+](=O)[O-]
> 100 µM: HCT-15
inactive: M19-MEL > 100 µM | DLD-1 > 100 µM | SF-268 > 100 µM | CCRF-CEM > 100 µM | SF-539 > 100 µM | HOP-18 > 100 µM | NCI-H23 > 100 µM | HOP-92 > 100 µM | DMS-114 > 100 µM | A549 > 100 µM | IGROV-1 > 100 µM | SR > 100 µM | HT-29 > 100 µM | SNB-19 > 100 µM | LOX IMVI > 100 µM | A498 > 100 µM | K562 > 100 µM | NCI-H460 > 100 µM | HCC 2998 > 100 µM | EKVX > 100 µM | KM12 > 100 µM | HOP-62 > 100 µM | UO-31 > 100 µM | OVCAR-4 > 100 µM | UACC-62 > 100 µM | 786-0 > 100 µM | HL-60 > 100 µM | U-251 > 100 µM | KM-20L2 > 100 µM | HCT-116 > 100 µM | MOLT-4 > 100 µM | RXF 631 > 100 µM | CAKI-1 > 100 µM | M14 > 100 µM | OVCAR-5 > 100 µM | ACHN > 100 µM | RPMI-8226 > 100 µM | OVCAR-8 > 100 µM | SF-295 > 100 µM | SK-MEL-2 > 100 µM | DMS-273 > 100 µM | SW-620 > 100 µM | TK-10 > 100 µM | SNB-78 > 100 µM | NCI-H522 > 100 µM | Malme-3M > 100 µM | RXF 393 > 100 µM | SK-OV-3 > 100 µM | SK-MEL-28 > 100 µM | SNB-75 > 100 µM | SK-MEL-5 > 100 µM | LXFL 529 > 100 µM | UACC-257 > 100 µM | OVCAR-3 > 100 µM
